# Data: patent US6582902B1, “Method for deriving epitopes” (priority 1992, dated 2003)
# No end group written: not given here.
# Tests used:
# [1] = system: anti-g10 serum; assay: Competition for immunoprecipitation of [32P] D10 RNA by anti-g10 serum; assay type: binding, rabbit; details: FIG. 5A (125 mg competitor) and FIG. 5B (g10 peptide 37-444 nM)
# Protocol: [^32P] labeled in vitro transcribed D10 RNA or [^35S] labeled in vitro translated g10 fusion protein (g10-U1A) was immunoprecipitated by the anti-g10 serum in the presence of various competitors. D10 RNA and g10 fusion protein bound in the immunoprecipitations were analyzed using denaturing polyacrylamide gels and autoradiography. Panel A: D10 RNA immunoprecipitations with: 1, no competitor; 2, no g10 antiserum added; 3, 125 mg of g10 peptide; 4, 125 mg of bovine serum albumin; 5, 125 mg of control peptide (sequence ETPEEREERRR) (SEQ ID NO:7). Panel B: D10 immunoprecipitations after incubation with increasing amounts of g10 peptide. Lanes: 1, no competitor; 2, 37 nM; 3, 74 nM; 4, 148 nM; 5, 222 nM; 6, 444 nM. Panel C: immunoprecipitations of a g10 containing fusion protein (g10-U1-A) using various competitors. Lanes: 1, no competitor; 2, preimmune rabbit serum; 3, 7.4 nM g10 peptide; 4, 0.7 nM D10 RNA; 5, 0.7 nM unrelated RNA (cDNA encoding loop sequence: ACGTTCGTCG)(SEQ ID NO:8). Panel D: immunoprecipitation of g10-U1A fusion protein after incubation with increasing amounts of D10 RNA. Lanes: 1, no competitor; 2, 0.0175 nM; 3, 0.035 nM; 4, 0.35 nM; 5, 0.7 nM; 6, 1.05 nM.
# Competition experiments were performed by addition of the various competitors to [^32P] labeled RNA or [^35S] labeled in vitro translated g10-snRNP-A fusion protein prior to immunoprecipitation. Bound RNAs were analyzed on 6% denaturing acrylamide gels and proteins on 10% SDS-PAGE gels, followed by autoradiography. Antibody-RNA complexes were formed in the presence of competitor g10 peptide or control peptide (FIG. 5A), or with increasing amounts of g10 peptide (FIG. 5B), and uncompeted RNA was recovered by immunoprecipitation.
# [2] = system: g10-reactive antibodies (anti-g10 serum); assay: Competition for immunoprecipitation of [35S] g10-U1-A fusion protein by anti-g10 serum; assay type: binding, rabbit; details: FIG. 3B lanes 8-12; g10 peptide 27.8-750 nM; control peptide 25 mM
# Text: (§1) Panel A: Western blot of E. coli extracts containing various U1-A protein constructs. All extracts were produced from induced E. coli cells containing recombinant pET-8c T7 expression vectors in accordance with known techniques. See F. Studier et al., Meth. Enzym. 185, 60-89 (1991). U1-A cDNA was cloned into pET-8c either attached or not attached to the g10 peptide. Lanes: 1, 5 and 9: the pET-8c vector alone; 2, 6 and 10: g10-U1-A protein; 3, 7 and 11: U1-A protein; 4, 8 and 12: total HeLa cell extracts. Lanes 1-4 were probed with pre-immune rabbit serum; lanes 5-8 were probed with anti-g10 serum; and lanes 9-12 were probed with a U1/U2-specific autoimmune serum (patient). EW reacts with U1 RNA, U1-70K (70 kDa), U1-A (31 kDa) and U2-A′ (28.4 kDa) (lane 12). Panel B: Immunoprecipitation and competition analysis of [^35S]-methionine-labeled U1-A and g10-U1-A proteins expressed by in vitro transcription, and subsequent translation in rabbit reticulocyte lysates. Lanes: 1 and 2 show the amount of U1-A and g10-U1-A translation product, respectively, added to each immunoprecipitation reaction; 3: blank; 4 and 5: U1-A and g10-U1-A precipitated with serum EW (reactive with U1-A); 6 and 7: U1-A and g10-U1-A, respectively, precipitated with anti-g10 serum. In lanes 8-12, g10-U1-A was precipitated with anti-g10 serum in the presence of varying amounts of competitors as follows: lanes 8-11 contained the g10 peptide at concentrations of 27.8, 83.3, 250 and 750 nM, respectively; lane 12 contained a control peptide (sequence GKSRGFAFVEFK-amide) (SEQ ID NO:4) at a concentration of 25 mM. The faint lower band in all lanes represents either a degradation product or a premature translation termination product and is seen consistently in U1-A translations.
# [^32P] labeled in vitro transcribed D10 RNA or [^35S] labeled in vitro translated g10 fusion protein (g10-U1A) was immunoprecipitated by the anti-g10 serum in the presence of various competitors. D10 RNA and g10 fusion protein bound in the immunoprecipitations were analyzed using denaturing polyacrylamide gels and autoradiography. […]
# [3] = system: anti-g10 serum; assay: Western blot of E. coli / HeLa extracts probed with anti-g10 serum; assay type: binding, rabbit; details: FIG. 3A lanes 5-8; serum diluted 1:2000
# Text: as §1
# (§2) A thirteen amino acid peptide was synthesized representing the amino-terminus of g10-fusion proteins expressed from the Studier T7 expression vectors (F. Studier et al., Meth. Enzym. 185, 60-89 (1991)) (peptide sequence: MASMTGGQQMGRC-carboxyl amide (SEQ ID NO:11), purchased from Multiple Peptide Systems). […]
# [4] = system: U1/U2-specific autoimmune serum (patient); assay: Western blot probed with control anti-U1-A autoimmune serum (patient); assay type: binding, human; details: FIG. 3A lanes 9-12
# Text: as §1, §2
# [5] = system: anti-g10 serum; assay: Immunoprecipitation of [35S]-labeled in vitro translated proteins with anti-g10 serum; assay type: binding, rabbit; details: FIG. 3B lanes 6-7
# Text: as §1, with “In lanes 8-12, g10-U1-A was precipitated with anti-g10 serum in the presence of varying amounts of competitors as follows: lanes 8-11 contained the g10 peptide at concentrations of 27.8, 83.3, 250 and 750 nM, respectively; lane 12 contained a control peptide (sequence GKSRGFAFVEFK-amide) (SEQ ID NO:4) at a concentration of 25 mM. The faint lower band in all lanes represents either a degradation product or a premature translation termination product and is seen consistently in U1-A translations.” left out
Substance,effect of competitor on D10 RNA precipitation by the anti-g10 serum [1],inhibition of anti-g10 antibody binding to g10-U1-A by free peptide [2],reactivity with anti-g10 serum in Western blot [3],reactivity with control anti-U1-A serum in Western blot [4],precipitation by anti-g10 serum (immunoprecipitation) [5]
ETPEEREERRR [unrelated peptide],neither bovine serum albumin nor an unrelated peptide showed any effect,–,–,–,–
"MASMTGGQQMGRC-carboxyl amide (MASMTGGQQMGRC-NH2) [g10 peptide, reference compound]",inhibited RNA binding,inhibited,–,–,–
authentic HeLa cell U1-A: endogenous U1-A (31 kDa) in total HeLa cell extracts,–,–,not,reacted,–
bovine serum albumin: bovine serum albumin used as control competitor,neither bovine serum albumin nor an unrelated peptide showed any effect,–,–,–,–
g10-U1-A fusion protein: g10-tagged U1-snRNP A protein,–,–,reacted,reacted,precipitated
recombinant U1-A: U1-A protein expressed without the g10 peptide,–,–,not,reacted,not
